Experimental data published in paper PMC11882969 (Nature Communications, 2025).
Values joined by “and” are separate entries in the source; they are usually repeats but may differ in a detail not shown here. Identical values can stand only once. Marks after values point to notes of the source that are not given here.

Key:
CB1 (rCB1) = CB1 (rCB1) (Rattus norvegicus, UniProt P20272); experiment: Radioligand competition binding, [3H]-CP-55,940, rat brain membranes
hCB2 = hCB2 (Homo sapiens, UniProt P34972); experiment: TRUPATH BRET2 GoA dissociation, HEK293T; assay type: cell-based; parameters: expressed in transfected cells; host or cells: HEK293T cells (ATCC: CRL-3216), transient co-transfection; settings: for functional response, concentration-response point (FigS7e, normalized): Log[drug], replicate columns
Chain of hCB2 (P34972 whole entry): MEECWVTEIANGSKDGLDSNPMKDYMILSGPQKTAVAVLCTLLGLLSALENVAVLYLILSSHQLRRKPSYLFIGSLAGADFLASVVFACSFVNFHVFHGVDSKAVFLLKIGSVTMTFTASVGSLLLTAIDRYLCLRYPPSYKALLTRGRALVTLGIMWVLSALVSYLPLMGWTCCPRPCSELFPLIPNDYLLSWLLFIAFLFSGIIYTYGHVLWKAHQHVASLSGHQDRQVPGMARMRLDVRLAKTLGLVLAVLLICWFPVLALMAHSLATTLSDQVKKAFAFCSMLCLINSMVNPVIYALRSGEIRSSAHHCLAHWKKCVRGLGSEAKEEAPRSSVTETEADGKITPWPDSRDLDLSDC

hCB1 [1] = biological target: T1, hCB1 (Homo sapiens, UniProt P21554); experiment: Tango β-arrestin-2 recruitment, HTLA cells, CB1R; assay type: cell-based; parameters: expressed in transfected cells; host or cells: HTLA cells (gift of R. Axel), transient transfection
T1 sequence (P21554 whole entry): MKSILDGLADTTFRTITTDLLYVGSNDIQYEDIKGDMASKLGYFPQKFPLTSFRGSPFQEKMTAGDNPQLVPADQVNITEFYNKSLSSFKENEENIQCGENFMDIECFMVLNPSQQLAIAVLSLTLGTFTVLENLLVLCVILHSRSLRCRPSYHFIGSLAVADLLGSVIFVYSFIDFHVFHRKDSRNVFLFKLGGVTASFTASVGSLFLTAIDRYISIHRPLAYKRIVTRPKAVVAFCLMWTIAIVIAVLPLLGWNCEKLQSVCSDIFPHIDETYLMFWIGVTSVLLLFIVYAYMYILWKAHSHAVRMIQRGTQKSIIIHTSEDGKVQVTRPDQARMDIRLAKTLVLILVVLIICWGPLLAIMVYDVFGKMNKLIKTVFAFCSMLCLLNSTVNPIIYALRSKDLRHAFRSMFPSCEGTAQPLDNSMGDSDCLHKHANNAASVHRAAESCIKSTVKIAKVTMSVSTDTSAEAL

hCB1 [2] = biological target: T1, hCB1; experiment: Lance Ultra cAMP accumulation assay, CHO cells; assay type: cell-based; parameters: expressed in transfected cells;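 also: human CB1R stably expressed in CHO cells, ligands co-incubated with forskolin at room temperature, read-out is lowering of forskolin-stimulated cAMP accumulation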
hCB1 [3] = biological target: T1, hCB1; experiment: bioSensAll ebBRET signaling profiling, hCB1; assay type: cell-based; parameters: host or cells: HEK293SL cells, transient PEI transfection; settings: Log [Compound] (M) -4.22186

Chain of CB1 (rCB1) (P20272 whole entry): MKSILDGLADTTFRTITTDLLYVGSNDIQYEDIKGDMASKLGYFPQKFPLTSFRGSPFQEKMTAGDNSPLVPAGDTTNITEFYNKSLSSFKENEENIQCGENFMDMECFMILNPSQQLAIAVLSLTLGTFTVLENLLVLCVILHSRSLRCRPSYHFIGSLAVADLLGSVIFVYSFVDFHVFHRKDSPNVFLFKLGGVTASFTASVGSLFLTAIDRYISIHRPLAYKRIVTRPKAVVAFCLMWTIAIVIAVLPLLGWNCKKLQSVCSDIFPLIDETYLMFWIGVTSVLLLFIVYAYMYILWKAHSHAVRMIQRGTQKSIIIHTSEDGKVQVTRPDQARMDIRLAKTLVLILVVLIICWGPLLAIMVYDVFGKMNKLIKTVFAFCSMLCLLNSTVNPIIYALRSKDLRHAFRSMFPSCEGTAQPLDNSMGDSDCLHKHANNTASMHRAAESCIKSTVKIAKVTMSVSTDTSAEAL

COC(=O)C(C)(NC(=O)c1cc(C)n(-c2cccc(C(F)(F)F)c2)n1)c1cccs1 (stereo not shown) [‘4042]
pKi [95% CI] (CB1 (rCB1); rCB1): 8.7 [8.6 – 8.9] | Ki (CB1 (rCB1); read-out: Ki [95% CI], rCB1, [3H]-CP-55,940): 1.9 nM and 1.86 nM | BRET2 + GoA pEC50 (hCB2): 8.1 [7.4 – 8.8] | Emax (hCB2; HEK-293T): 29% | functional response, concentration-response point (FigS7e, normalized) (hCB2; M = -5.52): 35.163 and 34.5195 and 37.1398 and 45.2359 and 22.1885 and 20.0253 and 22.0647 and 22.44 and 27.1274 and 29.7176 and 29.0627 and 31.2724 | functional response, concentration-response point (FigS7e, normalized) (hCB2; M = -6): 29.7877 and 33.9492 and 29.5334 and 25.2255 and 15.8228 and 16.2963 and 15.9211 and 20.153 and 25.0506 and 24.2718 and 28.0892 and 24.4694 | functional response, concentration-response point (FigS7e, normalized) (hCB2; M = -6.52): 26.0116 and 28.0846 and 25.607 and 31.5062 and 14.9093 and 14.0547 and 17.0527 and 13.1077 and 21.8115 and 21.8852 and 20.2922 and 24.9916 | functional response, concentration-response point (FigS7e, normalized) (hCB2; M = -7): 24.1274 and 22.8405 and 29.7761 and 21.8695 and 14.0743 and 11.9997 and 13.5282 and 12.4358 and 19.7258 and 19.481 and 19.1064 and 19.4486 | functional response, concentration-response point (FigS7e, normalized) (hCB2; M = -7.52): 23.5957 and 22.9137 and 20.3707 and 18.5906 and 11.4339 and 9.937 and 10.3691 and 10.8406 and 16.0355 and 14.8408 and 13.0297 and 14.2214 | functional response, concentration-response point (FigS7e, normalized) (hCB2; M = -8): 12.8343 and 12.3797 and 11.0928 and 9.008 and 8.006 and 4.9629 and 4.745 and 4.187 and 11.3719 and 9.991 and 9.086 and 7.272 | functional response, concentration-response point (FigS7e, normalized) (hCB2; M = -8.52): 3.796 and 2.717 and 4.595 and 4.6603 and 1.822 and 2.459 and 1.412 and 2.158 and 3.296 and 4.616 and 3.0209 and 3.939 | functional response, concentration-response point (FigS7e, normalized) (hCB2; M = -11.52): -0.1711 and -0.00125 and 0.5633 and 1.428 | functional response, concentration-response point (FigS7e, normalized) (hCB2; M = -12): 0.1237 and -0.6757 and -0.301 and 0.8531 and -0.1904 and 0.4719 and -0.17 and -0.1114 and 0.2132 and -0.01243 and 0.1138 and -0.3146 | Emax (hCB1 [1]; HTLA, hCB1, read-out: Tango ß-arrestin recruitment Emax): 102% | response, replicate values of concentration-response curve (FigS7f) (hCB1 [1]; Log[drug], M = -4.52): 7.067 and -6.331 and 5.4951 and 8.221 and 8.314 and -13.0772 and 26.9747 and 17.871 and 12.4553 and 121.329 and 105.672 and 117.884 | response, replicate values of concentration-response curve (FigS7f) (hCB1 [1]; Log[drug], M = -5): -3.086 and 3.974 and -30.8966 and 0.657 and 12.6131 and 6.151 and 33.0168 and 23.9031 and -6.308 and 64.2077 and 47.075 and 77.367 | response at Log[drug], M -5 (FigS4e) (hCB1 [1]; Log[drug], M = -5, individual replicates): 105.219 and 109.279 and 117.533 and 125.309 and 97.6126 and 107.099 and 99.9992 and 108.6 and 92.9311 and 106.141 and 96.6922 and 121.582 | response, replicate values of concentration-response curve (FigS7f) (hCB1 [1]; Log[drug], M = -5.52): -43.7244 and -3.669 and 10.2865 and 56.4831 and 26.3341 and 31.5757 and 34.4515 and 25.7521 and 21.276 and 49.6996 and 52.3788 and 22.9617 | response at Log[drug], M -5.52 (FigS4e) (hCB1 [1]; Log[drug], M = -5.52, individual replicates): 101.394 and 114.732 and 120.488 and 108.55 and 90.8381 and 89.995 and 132.472 and 109.506 and 88.5962 and 99.4965 and 84.8551 and 98.2296 | response, replicate values of concentration-response curve (FigS7f) (hCB1 [1]; Log[drug], M = -6): 45.905 and 18.3989 and 8.994 and 37.6798 and 48.3885 and 1.626 and 39.9683 and 51.123 and 11.4551 and 62.3486 and 38.1624 and 52.7798 | response at Log[drug], M -6 (FigS4e) (hCB1 [1]; Log[drug], M = -6, individual replicates): 110.2 and 110.608 and 113.923 and 102.851 and 70.7652 and 82.3944 and 91.1468 and 90.7286 and 85.6996 and 85.6798 and 84.3272 and 95.3395 | response, replicate values of concentration-response curve (FigS7f) (hCB1 [1]; Log[drug], M = -6.52): 48.7063 and 31.7717 and 10.7428 and 2.793 and 31.788 and 27.608 and 19.4978 and 35.1184 and 41.787 and 72.0632 and 23.3444 and 56.7531 | response at Log[drug], M -6.52 (FigS4e) (hCB1 [1]; Log[drug], M = -6.52, individual replicates): 101.401 and 93.7884 and 111.126 and 102.386 and 76.6593 and 76.4337 and 80.9673 and 77.6716 and 90.47 and 82.2224 and 76.8121 and 78.3428 | response, replicate values of concentration-response curve (FigS7f) (hCB1 [1]; Log[drug], M = -7): 45.8923 and 39.1109 and -32.4811 and 3.271 and 1.931 and -6.456 and 21.6196 and 13.8396 and 19.3159 and 108.005 and 18.4598 and 4.043 | response at Log[drug], M -7 (FigS4e) (hCB1 [1]; Log[drug], M = -7, individual replicates): 101.996 and 90.2881 and 92.9617 and 98.4638 and 67.7319 and 66.2817 and 76.3076 and 71.3692 and 69.3631 and 70.7817 and 73.5528 and 86.8411 | response, replicate values of concentration-response curve (FigS7f) (hCB1 [1]; Log[drug], M = -7.52): 6.205 and 16.8525 and 13.7723 and 78.1261 and 25.2327 and 15.4263 and 3.028 and 19.2351 and -2.458 and 66.2308 and 22.6883 and 80.2832 | response at Log[drug], M -7.52 (FigS4e) (hCB1 [1]; Log[drug], M = -7.52, individual replicates): 85.8169 and 81.0399 and 77.0438 and 77.8353 and 74.3661 and 62.598 and 69.4576 and 65.014 and 61.4855 and 54.8485 and 65.2396 and 54.8221 | response at Log[drug], M -8 (FigS4e) (hCB1 [1]; Log[drug], M = -8, individual replicates): 64.9332 and 70.1108 and 76.4142 and 63.9273 and 43.1923 and 49.5865 and 49.0423 and 55.5064 and 60.3508 and 56.2009 and 53.2123 and 59.8164 | response at Log[drug], M -8.52 (FigS4e) (hCB1 [1]; Log[drug], M = -8.52, individual replicates): 34.3417 and 29.1931 and 35.2401 and 27.4328 and 27.4461 and 34.6615 and 20.0846 and 24.5419 and 29.6463 and 23.9316 and 26.0874 and 20.4241 | response at Log[drug], M -9 (FigS4e) (hCB1 [1]; Log[drug], M = -9, individual replicates): 11.2308 and 14.9426 and 16.0188 and 14.8879 and 7.81 and 6.201 and 6.046 and 5.165 and 11.416 and 8.011 and 9.8505 and 11.4417 | response, replicate values of concentration-response curve (FigS7f) (hCB1 [1]; Log[drug], M = -9.52): -8.017 and 13.4427 and 7.219 and 1.3736 | response at Log[drug], M -9.52 (FigS4e) (hCB1 [1]; Log[drug], M = -9.52, individual replicates): 4.318 and 6.954 and 4.569 and 9.019 and 2.48 and 0.9701 and 1.146 and -0.2947 and 2.2712 and 3.563 and 2.22 and 2.613 | response, replicate values of concentration-response curve (FigS7f) (hCB1 [1]; Log[drug], M = -10): -5.634 and 19.8566 and -6.166 and -19.951 and 12.6927 and 1.918 and 26.5806 and 27.9648 and -15.2597 and 16.5278 and -42.7439 and -28.9284 | response at Log[drug], M -10 (FigS4e) (hCB1 [1]; Log[drug], M = -10, individual replicates): 4.678 and 4.596 and 5.116 and 5.805 and 0.4668 and 1.099 and -0.9271 and 0.03226 and 4.179 and 1.0137 and 3.024 and 3.033 | response at Log[drug], M -10.52 (FigS4e) (hCB1 [1]; Log[drug], M = -10.52, individual replicates): 3.333 and 5.039 and 5.463 and 7.136 and 2.136 and 1.073 and 1.405 and 1.689 and 0.06416 and 3.135 and 1.262 and 0.6116 | response at Log[drug], M -11 (FigS4e) (hCB1 [1]; Log[drug], M = -11, individual replicates): 2.02 and 1.728 and 3.648 and 1.714 and 2.136 and 0.5313 and 2.282 and 1.392 and 2.442 and 2.186 and 2.656 and 2.784 | response at Log[drug], M -11.52 (FigS4e) (hCB1 [1]; Log[drug], M = -11.52, individual replicates): 0.1596 and 0.8162 and 2.015 and 2.59 and 0.7808 and -0.157 and 2.17 and 1.37 and 0.3122 and 1.493 and -1.27 and 0.3892 | response at Log[drug], M -12 (FigS4e) (hCB1 [1]; Log[drug], M = -12, individual replicates): -1.281 and 1.1992 and 0.1003 and -0.01824 and -0.4194 and -1.323 and 0.4797 and 1.263 and -0.586 and -0.201 and 1.578 and -0.7913 | Tango ß-arrestin recruitment pEC50 (hCB1 [1]; hCB1): 8.0 [7.9 – 8.1] | EC50 (hCB1 [1]; hCB1, read-out: Tango ß-arrestin recruitment EC50): 10.7 nM | EC50 (hCB1 [2]): 3.3 nM | Lance Ultra cAMP pEC50 (hCB1 [2]): 8.5 [8.3 – 8.7] | Emax (hCB1 [2]; CHO): 78% | Barr2+GRK2 hCB1 (hCB1 [3]): 92.62* and 120.7* | G13 hCB1 (hCB1 [3]): 70.6599 | G15 hCB1 (hCB1 [3]): 109.73 and 102.131 | Gi1 hCB1 (hCB1 [3]): 104.966 and 104.552 and 101.354 | Gi2 hCB1 (hCB1 [3]): 114.417 and 105.522 | GoB hCB1 (hCB1 [3]): 107.662 and 102.746 and 100.082
